In series [1] the test system is Human immunodeficiency virus 1. Nature of the series: Antiviral activity against ENV pseudotyped HIV1 […] infected in human HeLa67 cells expressing CD4/CCR5[…] after 72 hrs by luciferase reporter gene assay. Particulars: Human immunodeficiency virus 1, HeLa67, 72 h. The series is classed as functional, organism-based.
The nature of series [2]: Cytotoxicity against human MT2 cells assessed as decrease in cell viability. The class given is cell-based.

Turning to `C[C@@H]1CN(C(=O)c2ccccc2)CCN1C(=O)C(=O)c1ccc2ccccc2c1`, in series [1], the 50% effective concentration (EC50) came to 2.4 nM. The 50% cytotoxic concentration (CC50) in series [2] worked out at 171 µM.

In series [1], `C[C@H]1CN(C(=O)c2ccccc2)CCN1C(=O)C(=O)c1cnc2ccccc2n1` returned an EC50 of 26 nM. Moreover, the CC50 in series [2] was 114 µM. For `CC1CN(C(=O)c2ccccc2)CCN1C(=O)C(=O)c1cccc2cc[nH]c12` (stereo not given) the same measures were 1010 nM and 212 µM.

In series [1], `O=C(C(=O)N1CCN(C(=O)c2ccccc2)CC1)c1ccc2nccnc2c1` had an EC50 of 3610 nM. Further, the CC50 in series [2] was more than 300 µM. For `O=C(C(=O)N1CCN(C(=O)c2ccccc2)CC1)c1cn2c(n1)sc1ccccc12` the same measures were 52 nM and more than 300 µM. For `C[C@@H]1CN(C(=O)c2ccccc2)CCN1C(=O)C(=O)c1cn2c(n1)sc1ccccc12`, the concentration for a half-maximal effect (EC50) in series [1] was 11 nM. In addition, the CC50 in series [2] was more than 300 µM. For `CC1CN(C(=O)c2ccccc2)CCN1C(=O)C(=O)c1ccc2ccccc2n1` (stereo not given) the same measures were 1.2 nM and 266 µM. On the same counts, the results for `C[C@@H]1CN(C(=O)c2ccccc2)CCN1C(=O)C(=O)c1nc2ccccc2[nH]1` are 798 nM and more than 300 µM. On the same counts, the results for `O=C(C(=O)N1CCN(C(=O)c2ccccc2)CC1)c1ccc2[nH]ccc2c1` are 255 nM and more than 250 µM. The molecule `C[C@@H]1CN(C(=O)c2ccccc2)CCN1C(=O)C(=O)c1cnc2ccccc2n1` yielded a 50% effective concentration (EC50) in series [1] of 4.6 nM. In addition, in series [2], the 50% cytotoxic concentration (CC50) was more than 300 µM. For `O=C(C(=O)N1CCN(C(=O)c2ccccc2)CC1)c1cc2ccccc2s1`, in series [1], the EC50 was 2840 nM. For the same molecule, the CC50 in series [2] came to 9 µM. On the same counts, the results for `O=C(C(=O)N1CCN(C(=O)c2ccccc2)CC1)c1cnn2ccccc12` are more than 5000 nM and more than 300 µM. On the same counts, the results for `O=C(C(=O)N1CCN(C(=O)c2ccccc2)CC1)c1ccc2cccnc2n1` are more than 5000 nM and more than 300 µM. On the same counts, the results for `CC1CN(C(=O)c2ccccc2)CCN1C(=O)C(=O)c1cnc2ccccn12` (stereo not given) are more than 5000 nM and more than 300 µM. Turning to `C[C@@H]1CN(C(=O)c2ccccc2)CCN1C(=O)C(=O)c1c[nH]c2ccccc12`, in series [1], a half-maximal effect (EC50) was put at 4 nM. Moreover, in series [2], the CC50 was found to be 200 µM. On the same counts, the results for `C[C@@H]1CN(C(=O)c2ccccc2)CCN1C(=O)C(=O)c1cc2cccn2cn1` are 407 nM and more than 300 µM.

In series [1], `COc1ccc2nc(C(=O)C(=O)N3CCN(C(=O)c4ccccc4)CC3C)ccc2c1` (stereo not given) registered a 50% effective concentration (EC50) of 0.2 nM. The 50% cytotoxic concentration (CC50) in series [2] turned out to be 184 µM.

The molecule `COc1cccc2nc(C(=O)C(=O)N3CCN(C(=O)c4ccccc4)CC3C)ccc12` (stereo not given) returned an EC50 in series [1] of 2.9 nM. For the same molecule, the 50% cytotoxic concentration (CC50) in series [2] turned out to be 200 µM.

`CC1CN(C(=O)c2ccccc2)CCN1C(=O)C(=O)c1ccc2c(O)cccc2n1` (stereo not given) yielded an EC50 in series [1] of 0.4 nM. Moreover, the CC50 in series [2] turned out to be 195 µM.

For `O=C(C(=O)N1CCN(C(=O)c2ccccc2)CC1)c1nc2ccccc2[nH]1`, in series [1], the EC50 was found to be 2460 nM. In addition, the cytotoxic concentration (CC50) in series [2] is more than 300 µM.

In series [1], `C[C@@H]1CN(C(=O)c2ccccc2)CCN1C(=O)C(=O)c1nc2ccccc2n1C` gave an EC50 of 12 nM. Moreover, the CC50 in series [2] was more than 300 µM. On the same counts, the results for `O=C(C(=O)N1CCN(C(=O)c2ccccc2)CC1)c1cccc2ccccc12` are 355 nM and more than 300 µM. For `COc1ccc2nc(C(=O)C(=O)N3CCN(C(=O)c4ccccc4)C[C@H]3C)sc2c1` the same measures were 2.6 nM and 151 µM. For `C[C@@H]1CN(C(=O)c2ccccc2)CCN1C(=O)C(=O)c1ccc2cc(C#N)ccc2c1` the same measures were 30 nM and 102 µM. In the case of `C[C@@H]1CN(C(=O)c2ccccc2)CCN1C(=O)C(=O)c1nc2ccccc2s1`, in series [1], the response was half-maximal at 34 nM (EC50). In addition, in series [2], the half-maximal cytotoxic concentration (CC50) was more than 230 µM.

For the molecule `COc1ccc2cc(C(=O)C(=O)N3CCN(C(=O)c4ccccc4)C[C@H]3C)ccc2c1`, the concentration for a half-maximal effect (EC50) in series [1] was 0.1 nM. Moreover, the cytotoxic concentration (CC50) in series [2] was found to be 41 µM. For the molecule `C[C@@H]1CN(C(=O)c2ccccc2)CCN1C(=O)C(=O)c1cc2sccc2s1`, it took 358 nM to reach a half-maximal effect in series [1] (EC50). Besides, the CC50 in series [2] was more than 300 µM.

In turn, `C[C@@H]1CN(C(=O)c2ccccc2)CCN1C(=O)C(=O)c1ccc2cc(C(=O)O)ccc2c1` had an EC50 in series [1] of 27 nM. For the same molecule, the CC50 in series [2] is more than 300 µM. On the same counts, the results for `C[C@@H]1CN(C(=O)c2ccccc2)CCN1C(=O)C(=O)c1ccc2[nH]nnc2c1` are 3060 nM and more than 300 µM. In the case of `C[C@@H]1CN(C(=O)c2ccccc2)CCN1C(=O)C(=O)c1ccc2cc(-c3nccs3)ccc2c1`, the half-maximal effective concentration (EC50) in series [1] was found to be 0.03 nM. Turning to `O=C(C(=O)N1CCN(C(=O)c2ccccc2)CC1)c1ccc2cccnc2c1`, the EC50 in series [1] worked out at 2860 nM. For the same molecule, in series [2], the 50% cytotoxic concentration (CC50) is more than 300 µM. On the same counts, the results for `CC1CN(C(=O)c2ccccc2)CCN1C(=O)C(=O)c1ccc2cc(F)ccc2n1` (stereo not given) are 5.9 nM and 258 µM.

Take `COc1cc(C(=O)C(=O)N2CCN(C(=O)c3ccccc3)C[C@H]2C)nc2ccccc12`: the EC50 in series [1] was found to be 56 nM. Moreover, the CC50 in series [2] was 96 µM. For `COc1ccc2[nH]c(C(=O)C(=O)N3CCN(C(=O)c4ccccc4)CC3C)cc2c1` (stereo not given) the same measures were more than 5000 nM and 33 µM.

Take `C[C@@H]1CN(C(=O)c2ccccc2)CCN1C(=O)C(=O)c1ccc2cc(Br)ccc2c1`: the concentration giving a half-maximal response (EC50) in series [1] came out at 1.3 nM. Besides, in series [2], the CC50 is 301 µM. For `C[C@@H]1CN(C(=O)c2ccccc2)CCN1C(=O)C(=O)c1ccc2ccccc2n1` the same measures were 0.7 nM and 198 µM.

In series [1], `CC1CN(C(=O)c2ccccc2)CCN1C(=O)C(=O)c1ccc2cc(Br)ccc2n1` (stereo not given) registered a 50% effective concentration (EC50) of 1.7 nM. Also, the CC50 in series [2] is 134 µM. Take `C[C@@H]1CN(C(=O)c2ccccc2)CCN1C(=O)C(=O)c1cc2ccccc2[nH]1`: in series [1], the EC50 stood at 219 nM.

As to `C[C@@H]1CN(C(=O)c2ccccc2)CCN1C(=O)C(=O)c1ccc2cc(C(N)=O)ccc2c1`, in series [1], a half-maximal response (EC50) required 11.9 nM. The 50% cytotoxic concentration (CC50) in series [2] came to 189 µM. For `O=C(C(=O)N1CCN(C(=O)c2ccccc2)CC1)c1csc2ccccc12` the same measures were 764 nM and 141 µM. On the same counts, the results for `C[C@@H]1CN(C(=O)c2ccccc2)CCN1C(=O)C(=O)c1n[nH]c2ccccc12` are 655 nM and more than 300 µM. Regarding `O=C(C(=O)N1CCN(C(=O)c2ccccc2)CC1)c1c[nH]c2ccccc12`, the CC50 in series [2] worked out at 339 µM.

Turning to `O=C(C(=O)N1CCN(C(=O)c2ccccc2)CC1)c1cnc2ccccc2n1`, the response in series [1] was half-maximal at 108 nM (EC50). The 50% cytotoxic concentration (CC50) in series [2] was more than 300 µM. On the same counts, the results for `C[C@@H]1CN(C(=O)c2ccccc2)CCN1C(=O)C(=O)c1cc2sccc2[nH]1` are 2320 nM and 106 µM. On the same counts, the results for `COc1cc(OC)c2cc(C(=O)C(=O)N3CCN(C(=O)c4ccccc4)CC3C)[nH]c2c1` (stereo not given) are more than 5000 nM and 68 µM. On the same counts, the results for `O=C(C(=O)N1CCN(C(=O)c2ccccc2)CC1)c1nc2ccccc2o1` are more than 5000 nM and more than 300 µM. `C[C@@H]1CN(C(=O)c2ccccc2)CCN1C(=O)C(=O)c1ccc2scnc2c1` came in with a concentration for a half-maximal effect (EC50) in series [1] of 86 nM. Also, the CC50 in series [2] is more than 300 µM.

Molecule `COc1ccc2cc(C(=O)C(=O)N3CCN(C(=O)c4ccccc4)CC3C)[nH]c2c1` (stereo not given) displayed a concentration giving a half-maximal response (EC50) in series [1] of 4.8 nM. In addition, in series [2], the CC50 was 27 µM. The molecule `C[C@@H]1CN(C(=O)c2ccccc2)CCN1C(=O)C(=O)c1ccc2cc(C(=N)NO)ccc2c1` returned a 50% effective concentration (EC50) in series [1] of 0.16 nM. Besides, the CC50 in series [2] worked out at 234 µM. In series [1], `O=C(C(=O)N1CCN(C(=O)c2ccccc2)CC1)c1cc2ccccc2cn1` registered an EC50 of 182 nM. Besides, in series [2], the CC50 was more than 300 µM. On the same counts, the results for `O=C(C(=O)N1CCN(C(=O)c2ccccc2)CC1)c1cc2ccccc2[nH]1` are 561 nM and more than 300 µM. On the same counts, the results for `C[C@H]1CN(C(=O)c2ccccc2)CCN1C(=O)C(=O)c1ccc2ccccc2n1` are 4.4 nM and 166 µM. For `CC1CN(C(=O)c2ccccc2)CCN1C(=O)C(=O)c1cnc2ncccn12` (stereo not given) the same measures were more than 5000 nM and more than 300 µM. Take `CC1CN(C(=O)c2ccccc2)CCN1C(=O)C(=O)c1ccc2cc(O)ccc2n1` (stereo not given): the EC50 in series [1] worked out at 0.2 nM. In addition, the CC50 in series [2] came to 210 µM. For `C[C@@H]1CN(C(=O)c2ccccc2)CCN1C(=O)C(=O)c1c[nH]c2c1ccc1cccnc12` the same measures were 17 nM and 45 µM. The molecule `O=C(C(=O)N1CCN(C(=O)c2ccccc2)CC1)c1ccc2ccccc2n1` had a 50% effective concentration (EC50) in series [1] of 13 nM. The CC50 in series [2] is more than 300 µM. For `CC1CN(C(=O)c2ccccc2)CCN1C(=O)C(=O)c1nsc2ccccc12` (stereo not given) the same measures were 734 nM and 75 µM. On the same counts, the results for `O=C(C(=O)N1CCN(C(=O)c2ccccc2)CC1)c1ccc2cnccc2n1` are 137 nM and more than 300 µM. On to `O=C(C(=O)N1CCN(C(=O)c2ccccc2)CC1)c1ccc2ccccc2c1`, for which, in series [1], the response was half-maximal at 135 nM (EC50). Besides, in series [2], the CC50 came out at 94 µM.

The term EC50 denotes the concentration giving half of the maximal effect. One may read the CC50 as the concentration at which the toxic effect on the cells reaches its halfway point.
